# Results from patent publication US20090232838A1, “Ligands of melanocortin receptors” (priority 2005, published 2009).
# Read-outs that look alike come from different tables or passages of the source. Where a SMILES comes first, the peptide text is derived from it. Bridges are numbered along the chain shown (N, C = ends). [ ]: non-standard residue; d: D form. 2Nal = N[C@@H](Cc1ccc2ccccc2c1)C(=O)O; d2Nal = N[C@H](Cc1ccc2ccccc2c1)C(=O)O; Aib = CC(C)(N)C(=O)O
# Columns and labels:
# [1] = molecular target: T1, hMC1-R (Homo sapiens, UniProt Q01726); assay: Radioligand binding assay, hMC1-R
# T1 construct: expressed in transfected cells; host or cells: CHO-K1
# Description: (§1) Cellular membranes used for the in vitro receptor binding assays were obtained from transgenic CHO-K1 cells stably expressing hMC-R receptor subtypes 1, 3, 4 or 5. […] The pellets were resuspended in the same buffer and centrifuged at 50,000 g for 10 minutes at approximately 4° C. The washed pellets containing the cellular membranes were stored at approximately −80° C.
# (§2) Filters were washed three times with 50 mM Tris-HCl at p-H 7.4 at a temperature of approximately 0-4° C. and then assayed for radioactivity using a Packard Topcount® scintillation counter. Binding data were analyzed by computer-assisted non-linear regression analysis (XL fit; IDBS).
# [2] = molecular target: T2, hMC3-R (Homo sapiens, UniProt P41968); assay: Radioligand binding assay, hMC3-R
# T2 construct: expressed in transfected cells; host or cells: CHO-K1
# Description: as §1, §2
# [3] = molecular target: T3, hMC4-R (Homo sapiens, UniProt P32245); assay: Radioligand binding assay, hMC4-R
# T3 construct: expressed in transfected cells; host or cells: CHO-K1
# Description: as §1, §2
# [4] = molecular target: T4, hMC5-R (Homo sapiens, UniProt P33032); assay: Radioligand binding assay, hMC5-R
# T4 construct: expressed in transfected cells; host or cells: CHO-K1
# Description: as §1, §2
# [5] = molecular target: T1, hMC1-R; assay: cyclic AMP bioassay, hMC1-R; format: cell-based
# Description: Intracellular cyclic AMP (cAMP) levels were determined by an electrochemiluminescence (ECL) assay (Meso Scale Discovery®, Gaithersburg, Md.; referred to hereinafter as MSD). […] Transgenic CHO-K1 cells stably expressing hMC receptor subtypes 1, 3, 4 or 5 were dispensed at a density of approximately 7,000 cells/well in 384-well Multi-Arrays plates (MSD) containing integrated carbon electrodes and coated with anti-CAMP antibody. Increasing concentrations of the test compounds were added and the cells were incubated for approximately 40 minutes at approximately 37° C. […] At the end of the second incubation period read buffer (Tris-buffered solution containing an ECL co-reactant and Triton X-100 at ph 7.8) was added and the cAMP levels in the cell lysates were immediately determined by ECL detection with a Sector Imager 6000 Reader® (MSD). Data were analyzed using a computer-assisted non-linear regression analysis (XL fit; IDBS) and reported as either an EC50 value or a Kb value.
# The Kb value reflects the potency of an antagonist and is determined by Schild analysis. In brief, concentration-response curves of an agonist are carried out in the presence of increasing concentrations of an antagonist. […] It is calculated by extrapolating the line on a Schild plot to zero on the y-axis.
# [6] = molecular target: T2, hMC3-R; assay: cyclic AMP bioassay, hMC3-R; format: cell-based
# [7] = molecular target: T3, hMC4-R; assay: cyclic AMP bioassay, hMC4-R; format: cell-based
# [8] = molecular target: T4, hMC5-R; assay: cyclic AMP bioassay, hMC5-R; format: cell-based
# T1 sequence (Q01726 whole entry): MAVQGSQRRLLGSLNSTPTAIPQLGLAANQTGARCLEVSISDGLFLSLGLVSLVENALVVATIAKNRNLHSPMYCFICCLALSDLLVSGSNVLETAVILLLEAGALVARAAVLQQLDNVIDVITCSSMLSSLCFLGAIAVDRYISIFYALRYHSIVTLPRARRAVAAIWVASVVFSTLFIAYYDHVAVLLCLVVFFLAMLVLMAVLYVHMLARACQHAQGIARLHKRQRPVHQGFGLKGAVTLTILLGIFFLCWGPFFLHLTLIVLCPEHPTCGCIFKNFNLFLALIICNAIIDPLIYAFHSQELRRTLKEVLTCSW
# T3 sequence (P32245 whole entry): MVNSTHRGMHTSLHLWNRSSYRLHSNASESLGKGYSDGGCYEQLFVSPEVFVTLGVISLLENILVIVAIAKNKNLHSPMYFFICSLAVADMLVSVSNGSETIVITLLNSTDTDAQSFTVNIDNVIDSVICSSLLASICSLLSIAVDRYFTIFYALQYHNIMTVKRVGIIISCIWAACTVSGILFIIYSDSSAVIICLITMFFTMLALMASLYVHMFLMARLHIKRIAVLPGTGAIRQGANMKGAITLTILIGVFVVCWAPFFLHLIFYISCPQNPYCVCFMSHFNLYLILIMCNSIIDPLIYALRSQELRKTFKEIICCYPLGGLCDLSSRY
# T4 sequence (P33032 whole entry): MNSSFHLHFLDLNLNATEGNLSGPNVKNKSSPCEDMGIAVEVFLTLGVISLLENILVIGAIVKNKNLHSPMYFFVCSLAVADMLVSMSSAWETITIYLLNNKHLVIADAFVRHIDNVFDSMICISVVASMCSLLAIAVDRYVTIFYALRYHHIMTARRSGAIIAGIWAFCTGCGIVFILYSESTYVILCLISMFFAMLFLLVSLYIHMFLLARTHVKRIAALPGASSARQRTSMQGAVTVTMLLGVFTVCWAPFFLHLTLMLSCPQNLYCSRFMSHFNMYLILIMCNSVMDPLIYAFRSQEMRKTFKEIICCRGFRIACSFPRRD
# T2 sequence (P41968 whole entry): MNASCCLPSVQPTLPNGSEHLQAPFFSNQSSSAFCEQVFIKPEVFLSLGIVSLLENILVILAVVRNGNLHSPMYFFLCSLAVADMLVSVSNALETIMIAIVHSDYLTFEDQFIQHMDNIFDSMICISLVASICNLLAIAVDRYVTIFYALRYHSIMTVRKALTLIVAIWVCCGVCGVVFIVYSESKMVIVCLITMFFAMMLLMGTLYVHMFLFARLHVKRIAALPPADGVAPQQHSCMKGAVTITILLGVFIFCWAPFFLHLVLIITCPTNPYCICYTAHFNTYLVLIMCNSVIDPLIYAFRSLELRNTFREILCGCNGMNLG
Compound,Ki [1] [nM],Ki [2] [nM],Ki [3] [nM],Ki [4] [nM],EC50 [5] [nM],EC50 [6] [nM],EC50 [7] [nM],EC50 [8] [nM],Kb [6] [nM],Kb [7] [nM],Ki ([3]; read-out: Ki hMC4-R) [nM],"Kb ([6]; Table 3A, cAMP in CHO-K1 cells, antagonist potency by Schild analysis, read-out: Kb hMC3-R) [nM]","Kb ([7]; Table 3A, cAMP in CHO-K1 cells, antagonist potency by Schild analysis, read-out: Kb hMC4-R) [nM]"
CCCC[C@H](NC(C)=O)C(=O)N[C@H]1CSSC[C@@H](C(=O)NCCC(=O)N[C@@H](CCCNC(=N)N)C(=O)N[C@@H](CCCNC(=N)N)C(=O)N[C@@H](CCCCN)C(=O)N[C@@H](CCCNC(=N)N)C(=O)N[C@@H](CCCNC(=N)N)C(=O)N[C@@H](CCC(N)=O)C(=O)N[C@@H](CCCNC(=N)N)C(=O)N[C@@H](CCCNC(=N)N)C(=O)N[C@@H](CCCNC(=N)N)C(N)=O)NC(=O)[C@H](Cc2c[nH]c3ccccc23)NC(=O)[C@H](CCCNC(=N)N)NC(=O)[C@@H](Cc2ccccc2)NC(=O)[C@H](Cc2c[nH]cn2)NC(=O)[C@@H](C)NC1=O,0.212,1.23,0.484,58.5,1.86,1.39,0.367,165,,,,,
CCCC[C@H](NC(C)=O)C(=O)N[C@H]1CSSC[C@@H](C(=O)NCCC(=O)N[C@@H](CCCNC(=N)N)C(=O)N[C@@H](CCCCN)C(=O)N[C@@H](CCCNC(=N)N)C(=O)N[C@@H](CCCNC(=N)N)C(=O)N[C@@H](CCCNC(=N)N)C(=O)N[C@@H](CCC(N)=O)C(=O)N[C@@H](CCCNC(=N)N)C(=O)N[C@@H](CCCNC(=N)N)C(=O)N[C@@H](CCCNC(=N)N)C(N)=O)NC(=O)[C@H](Cc2c[nH]c3ccccc23)NC(=O)[C@H](CCCNC(=N)N)NC(=O)[C@@H](Cc2ccccc2)NC(=O)[C@H](Cc2c[nH]cn2)NC(=O)[C@@H](C)NC1=O,0.778,1.22,0.468,47,2.06,1.61,0.394,199,,,,,
CCCC[C@H](NC(C)=O)C(=O)N[C@H]1CSSC[C@@H](C(=O)NCCC(=O)NCC(=O)N[C@@H](CCCNC(=N)N)C(=O)N[C@@H](CCCCN)C(=O)N[C@@H](CCCNC(=N)N)C(=O)N[C@@H](CCCNC(=N)N)C(=O)N[C@@H](CCCNC(=N)N)C(=O)N[C@@H](CCC(N)=O)C(=O)N[C@@H](CCCNC(=N)N)C(=O)N[C@@H](CCCNC(=N)N)C(=O)N[C@@H](CCCNC(=N)N)C(N)=O)NC(=O)[C@H](Cc2c[nH]c3ccccc23)NC(=O)[C@H](CCCNC(=N)N)NC(=O)[C@@H](Cc2ccccc2)NC(=O)[C@H](Cc2c[nH]cn2)NC(=O)[C@@H](C)NC1=O,,1.21,0.293,,2.81,3.29,0.298,566,,,,,
CC(=O)N[C@H]1CSSC[C@@H](C(=O)N2CCC[C@H]2C(=O)N2CCC[C@H]2C(=O)N[C@@H](CCCNC(=N)N)C(=O)N[C@@H](CC(=O)O)C(=O)NCCC(=O)N[C@@H](CCCNC(=N)N)C(=O)N[C@@H](CCCNC(=N)N)C(=O)N[C@@H](CCCNC(=N)N)C(=O)N[C@@H](CCCNC(=N)N)C(=O)N[C@@H](CCCNC(=N)N)C(=O)N[C@@H](CCC(N)=O)C(=O)N[C@@H](CCCNC(=N)N)C(=O)N[C@@H](CCCNC(=N)N)C(=O)N[C@@H](CCCNC(=N)N)C(N)=O)NC(=O)[C@H](C)NC(=O)[C@H](Cc2cccc3ccccc23)NC(=O)[C@H](CCCNC(=N)N)NC(=O)[C@@H](Cc2ccc3ccccc3c2)NC(=O)[C@H](Cc2c[nH]cn2)NC(=O)[C@H](CCC(=O)O)NC1=O,,,0.293,,144,,,819,116,8.93,,,
CC(=O)N[C@H]1CSSC[C@@H](C(=O)N2CCC[C@H]2C(=O)N2CCC[C@H]2C(=O)N[C@@H](CCCCN)C(=O)N[C@@H](CC(=O)O)C(=O)NCCC(=O)N[C@@H](Cc2ccc(O)cc2)C(=O)NCC(=O)N[C@@H](CCCNC(=N)N)C(=O)N[C@@H](CCCCN)C(=O)N[C@@H](CCCNC(=N)N)C(=O)N[C@@H](CCCNC(=N)N)C(=O)N[C@@H](CCCNC(=N)N)C(=O)N[C@@H](CCC(N)=O)C(=O)N[C@@H](CCCNC(=N)N)C(=O)N[C@@H](CCCNC(=N)N)C(=O)N[C@@H](CCCNC(=N)N)C(N)=O)NC(=O)[C@H](C)NC(=O)[C@H](Cc2cccc3ccccc23)NC(=O)[C@H](CCCNC(=N)N)NC(=O)[C@@H](Cc2ccc3ccccc3c2)NC(=O)[C@H](Cc2c[nH]cn2)NC(=O)[C@H](CCC(=O)O)NC1=O,,1.61,,,102,,,261,26.3,14.6,,,
CC(=O)N[C@H]1CSSC[C@@H](C(=O)N2CCC[C@H]2C(=O)N2CCC[C@H]2C(=O)N[C@@H](CCCCN)C(=O)N[C@@H](CC(=O)O)C(=O)NCCC(=O)N[C@@H](Cc2ccc(O)cc2)C(=O)NCC(=O)N[C@@H](CCCNC(=N)N)C(=O)N[C@@H](CCCNC(=N)N)C(=O)N[C@@H](CCCCN)C(=O)N[C@@H](CCCNC(=N)N)C(=O)N[C@@H](CCCNC(=N)N)C(=O)N[C@@H](CCC(N)=O)C(=O)N[C@@H](CCCNC(=N)N)C(=O)N[C@@H](CCCNC(=N)N)C(=O)N[C@@H](CCCNC(=N)N)C(N)=O)NC(=O)[C@H](C)NC(=O)[C@H](Cc2ccc3ccccc3c2)NC(=O)[C@H](CCCNC(=N)N)NC(=O)[C@@H](Cc2ccc3ccccc3c2)NC(=O)[C@H](Cc2c[nH]cn2)NC(=O)[C@H](CCC(=O)O)NC1=O,,1.12,,15.3,58.7,,,460,39.3,10.3,,,
CC(=O)N[C@H]1CSSC[C@@H](C(=O)N2CCC[C@H]2C(=O)N2CCC[C@H]2C(=O)N[C@@H](CCCCN)C(=O)N[C@@H](CC(=O)O)C(=O)NCCC(=O)N[C@@H](CCCNC(=N)N)C(=O)N[C@@H](CCCNC(=N)N)C(=O)N[C@@H](CCCNC(=N)N)C(=O)N[C@@H](CCCNC(=N)N)C(=O)N[C@@H](CCCNC(=N)N)C(=O)N[C@@H](CCCNC(=N)N)C(=O)N[C@@H](CCC(N)=O)C(=O)N[C@@H](CCCNC(=N)N)C(=O)N[C@@H](CCCNC(=N)N)C(=O)N[C@@H](CCCNC(=N)N)C(N)=O)NC(=O)[C@H](C)NC(=O)[C@H](Cc2ccc3ccccc3c2)NC(=O)[C@H](CCCNC(=N)N)NC(=O)[C@@H](Cc2ccc3ccccc3c2)NC(=O)[C@H](Cc2c[nH]cn2)NC(=O)[C@H](CCC(=O)O)NC1=O,3.65,,,,29.1,,,,13.6,13.4,,,
CC(=O)N[C@H]1CSSC[C@@H](C(=O)N2CCC[C@H]2C(=O)N2CCC[C@H]2C(=O)N[C@@H](CCCCN)C(=O)N[C@@H](CC(=O)O)C(=O)NCCC(=O)NCC(=O)N[C@@H](CCCNC(=N)N)C(=O)N[C@@H](CCCCN)C(=O)N[C@@H](CCCNC(=N)N)C(=O)N[C@@H](CCCNC(=N)N)C(=O)N[C@@H](CCCNC(=N)N)C(=O)N[C@@H](CCC(N)=O)C(=O)N[C@@H](CCCNC(=N)N)C(=O)N[C@@H](CCCNC(=N)N)C(=O)N[C@@H](CCCNC(=N)N)C(N)=O)NC(=O)[C@H](C)NC(=O)[C@H](Cc2ccc3ccccc3c2)NC(=O)[C@H](CCCNC(=N)N)NC(=O)[C@@H](Cc2ccc3ccccc3c2)NC(=O)[C@H](Cc2c[nH]cn2)NC(=O)[C@H](CCC(=O)O)NC1=O,5.66,,,,309,,,570,22.8,17.1,,,
CCCC[C@H](N)C(=O)N[C@H]1CC(=O)NCCCC[C@@H](C(=O)NCCOCCOCC(=O)NCCOCCOCC(=O)N[C@@H](Cc2ccc(O)cc2)C(=O)NCC(=O)N[C@@H](CCCNC(=N)N)C(=O)N[C@@H](CCCCN)C(=O)N[C@@H](CCCCN)C(=O)N[C@@H](CCCNC(=N)N)C(=O)N[C@@H](CCCNC(=N)N)C(=O)N[C@@H](CCC(N)=O)C(=O)N[C@@H](CCCNC(=N)N)C(=O)N[C@@H](CCCNC(=N)N)C(=O)N[C@@H](CCCNC(=N)N)C(N)=O)NC(=O)[C@H](Cc2c[nH]c3ccccc23)NC(=O)[C@H](CCCNC(=N)N)NC(=O)[C@@H](Cc2ccc3ccccc3c2)NC(=O)[C@H](Cc2c[nH]cn2)NC1=O,,,,,,,,,,,6,261,3.11
CC(=O)N[C@H]1CSSC[C@@H](C(=O)N2CCC[C@H]2C(=O)N2CCC[C@H]2C(=O)N[C@@H](CCCCN)C(=O)N[C@@H](CC(=O)O)C(N)=O)NC(=O)C(C)(C)NC(=O)[C@H](Cc2ccc3ccccc3c2)NC(=O)[C@H](CCCNC(=N)N)NC(=O)[C@@H](Cc2ccc3ccccc3c2)NC(=O)[C@H](Cc2c[nH]cn2)NC(=O)[C@H](CCC(=O)O)NC1=O [Ac-c(Cys-Glu-His-D-2-Nal-Arg-2-Nal-Aib-Cys)-Pro-Pro-Lys-Asp-NH2] (Ac-CEH[d2Nal]R[2Nal][Aib]CPPKD-NH2; disulfide 1-8),,,5.87,,770,,,869,221,4.52,,,
